From paper PMC2584942, “Phase I dose escalation study of telatinib (BAY 57-9352) in patients with advanced solid tumours” (British Journal of Cancer, 2008)
Where two headings read alike, the source gives them in different places.

What was measured:
[1] = system: refractory advanced solid tumours; experiment: Tumour response according to RECIST; type: in vivo, human; settings: number of patients
Description: History, physical examinations, haematological and biochemical laboratory evaluations were performed at screening, on days 1, 7 and 14 of cycle 1 and on day 1 of subsequent cycles. Baseline objective tumour measurements were performed within 4 weeks prior to study treatment. Lesions at all disease sites were categorised as either measurable or nonmeasurable. Indicator lesions were selected and monitored throughout the study by the same assessor and using the same technique. Tumour response was evaluated according to the RECIST ([Therasse et al, 2000]).

[2] = system: p-glycoprotein transporter; set-up: method as in printed; settings: in vitro studies; background statement, ref not given; cited from earlier work
Colo-205 colon carcinoma = system: Colo-205 colon carcinoma; set-up: method as in printed; settings: Colo-205 colon carcinoma model; background statement, ref not given; cited from earlier work
[3] = system: H460 non-small cell lung carcinoma; set-up: method as in printed; settings: H460 non-small cell lung carcinoma model; background statement, ref not given; cited from earlier work
VEGF = experiment: Plasma VEGF concentration (ELISA); type: in vivo, human
Description: […] Samples were analysed using the relevant quantitative enzyme-linked immunosorbent assay (ELISA) (R&D Systems Europe, Oxford, UK) according to the manufacturer's instructions. DCE-MRI was performed at baseline, on day 2 (only cycle 1), and on day 14 of cycles 1–3 to assess tumour blood flow/tumour vessel permeability in a subgroup of patients ([Morgan et al, 2003]).
To assess the biological activity of telatinib, plasma concentration analyses for the angiogenic markers VEGF, sVEGFR-2, bFGF, PDGF and […] were performed at baseline and during the course of the study. Furthermore, DCE-MRI measurements were done at baseline, on days 2 and 14 of cycle 1 and on day 14 of cycles 2 and 3. Evaluable DCE-MRI results were available for a subgroup of patients treated at dose levels of 300 mg BID or higher.

major human CYP isoforms = system: major human CYP isoforms; set-up: method as in printed; settings: at therapeutically relevant concentrations; background statement, ref not given; cited from earlier work
[4] = system: human aortic smooth muscle cells; set-up: method as in printed; settings: background statement, ref not given; cited from earlier work
[5] = system: cytochrome P450 (CYP) isoforms; set-up: method as in printed; settings: background statement, ref not given, cited from earlier work
[6] = system: VEGFR-2 autophosphorylation; set-up: method as in printed; settings: whole-cell assay in vitro; background statement, ref not given; cited from earlier work
[7] = set-up: method as in printed; settings: in vitro studies; background statement, ref not given; cited from earlier work
DLD-1 colon carcinoma = system: DLD-1 colon carcinoma; set-up: method as in printed; settings: DLD-1 colon carcinoma model; background statement, ref not given; cited from earlier work
[8] = Plasma pharmacokinetics of telatinib and metabolite BAY 60-8246 (LC-MS-MS, non-compartmental); type: in vivo, human; settings: for half-life / Tmax / Cmax / AUC(0-t) / AUC: human; for AUC(0-t): read-out: AUC0–12; for AUC: read-out: AUC0–tn
Description: Patients with at least one valid pharmacokinetic profile were valid for the pharmacokinetic analysis. Plasma samples were collected at predose and 0.5, 1, 2, 3, 4, 6, 8, and 12 h postdose on day 1 and day 14 of cycle 1 and were analysed for BAY 57-9352 and its demethylated metabolite M-2, BAY 60-8246, using a validated LC-MS-MS analytical method.
Plasma pharmacokinetic parameters, area under the curve from time 0–12 h after dosing (AUC0−12), area under the curve from time 0 to last data point (AUC0−tn), maximum plasma concentration (Cmax), and time to maximum plasma concentration (tmax) of telatinib and its metabolite (BAY 60-8246) as well as half-life of telatinib were calculated by non-compartmental methods using WinNonlin version 4.1.a (Pharsight Corporation). The linear-logarithmic trapezoidal rule was used for calculating AUC. Half-life was calculated by linear least squares regression after logarithmic transformation of the terminal concentrations. Pharmacokinetic parameters were analysed using descriptive statistics.

[9] = primary tumour site Colorectal, N=25
[10] = primary tumour site Other, N=17
[11] = primary tumour site Pancreatic, N=4
[12] = telatinib in plasma, day 14 cycle 1, 75 mg BID oral, 25 mg mesylate tablet, n=4, geometric mean (%CV)
[13] = telatinib in plasma, day 14 cycle 1, 150 mg BID oral, 25 mg mesylate tablet, n=6, geometric mean (%CV)
[14] = telatinib in plasma, day 14 cycle 1, 300 mg BID oral, 25 mg mesylate tablet, n=6, geometric mean (%CV)
[15] = telatinib in plasma, day 14 cycle 1, 600 mg BID oral, 150 mg mesylate tablet, n=11, geometric mean (%CV)
[16] = telatinib in plasma, day 14 cycle 1, 900 mg BID oral, 150 mg mesylate tablet, n=12, geometric mean (%CV)
[17] = telatinib in plasma, day 14 cycle 1, 1200 mg BID oral, 150 mg mesylate tablet, n=6, geometric mean (%CV)
[18] = telatinib in plasma, day 14 cycle 1, 1500 mg BID oral, 150 mg mesylate tablet, n=12, geometric mean (%CV)

Compound: CNC(=O)c1cc(COc2nnc(Nc3ccc(Cl)cc3)c3ccoc23)ccn1 [telatinib]
- Best response NA (not assessable for response) ([1]; Total, N=71): 1
- Best response PD clin (RECIST) ([1]; Total, N=71): 9
- Best response PD meas (RECIST) ([1]; Total, N=71): 14
- Best response PR (RECIST) ([1]; Total, N=71): 2
- Best response SD (RECIST) ([1]; Total, N=71): 42
- Stabilisation (months) <6 ([1]; Total, N=71): 62
- Stabilisation (months) >6 ([1]; Total, N=71): 5
- Stabilisation (months) >12 ([1]; Total, N=71): 3
- Best response PD clin (RECIST) [1, 9]: 1
- Best response PD meas (RECIST) [1, 9]: 6
- Best response SD (RECIST) [1, 9]: 17
- Stabilisation (months) <6 [1, 9]: 23
- Stabilisation (months) >6 [1, 9]: 1
- Stabilisation (months) >12 [1, 9]: 1
- Best response PD clin (RECIST) ([1]; primary tumour site HCC, N=9): 4
- Best response SD (RECIST) ([1]; primary tumour site HCC, N=9): 5
- Stabilisation (months) <6 ([1]; primary tumour site HCC, N=9): 8
- Stabilisation (months) >6 ([1]; primary tumour site HCC, N=9): 1
- Best response PD meas (RECIST) ([1]; primary tumour site NSCLC, N=4): 1
- Best response SD (RECIST) ([1]; primary tumour site NSCLC, N=4): 3
- Stabilisation (months) <6 ([1]; primary tumour site NSCLC, N=4): 4
- Best response NA (not assessable for response) [1, 10]: 1
- Best response PD clin (RECIST) [1, 10]: 1
- Best response PD meas (RECIST) [1, 10]: 4
- Best response SD (RECIST) [1, 10]: 10
- Stabilisation (months) <6 [1, 10]: 13
- Stabilisation (months) >6 [1, 10]: 3
- Best response PD clin (RECIST) [1, 11]: 2
- Best response PD meas (RECIST) [1, 11]: 2
- Stabilisation (months) <6 [1, 11]: 4
- Best response PD clin (RECIST) ([1]; primary tumour site RCC, N=12): 1
- Best response PD meas (RECIST) ([1]; primary tumour site RCC, N=12): 1
- Best response SD (RECIST) ([1]; primary tumour site RCC, N=12): 7
- Stabilisation (months) <6 ([1]; primary tumour site RCC, N=12): 10
- Stabilisation (months) >12 ([1]; primary tumour site RCC, N=12): 2
- drug–drug interactions due to modulation of p-glycoprotein transporter activity [2]: unlikely
- tumour growth in vivo (Colo-205 colon carcinoma): potent, dose-dependent reduction in tumour growth
- tumour growth in vivo [3]: potent, dose-dependent reduction in tumour growth
- VEGF levels (VEGF; day 21 compared to baseline): increased
- VEGF plasma levels (VEGF; within 8 h after the first telatinib administration): dose-dependent short-term increase
- inhibitory and inductive potential on major human CYP isoforms (major human CYP isoforms): neither an inhibitory nor an inductive potential
- PDGF-stimulated growth [4]: inhibited
- main target of metabolic degradation [5]: N-methyl group
- risk of drug–drug interactions ([5]; human microsomes, hepatocytes or single CYP isoforms): no or only a very low risk of drug–drug interactions
- biotransformation by CYP isoforms ([5]; in vitro): metabolised by various CYP isoforms
- VEGFR-2 autophosphorylation [6]: inhibited
- drug–drug interactions due to displacement from plasma protein-binding sites [7]: unlikely
- tumour growth in vivo (DLD-1 colon carcinoma): potent, dose-dependent reduction in tumour growth
- Relative bioavailability ([8]; 150 mg tablet formulation compared with 25 mg tablet formulation): less when compared with the 25 mg tablet formulation
- Dose proportionality of geometric mean Cmax and AUC0−12 ([8]; BID dosing, plateaued in the 900–1500 mg BID dose range): less than dose-proportional
- Increase in geometric mean Cmax between dose levels ([8]; between the 300 and 600 mg BID dose level): two-fold
- half-life ([8]; plasma, oral, telatinib, across dose levels, discussion statement, read-out: half-life): 6.6 to 10.9 h
- Tmax ([8]; plasma, telatinib, oral, BID dosing, read-out: median tmax): ≤ 3 h
- Cmax [8, 12]: 212 ng/mL
- AUC(0-t) [8, 12]: 1390 ng·h/mL
- AUC [8, 12]: 1380 ng·h/mL
- half-life ([8]; telatinib in plasma, day 14 cycle 1, 75 mg BID oral, 25 mg mesylate tablet, n=4, geometric mean (%CV), read-out: t1/2 (converted)): 7.4 h
- Tmax ([8]; telatinib in plasma, day 14 cycle 1, 75 mg BID oral, 25 mg mesylate tablet, n=4, median (range), read-out: tmax): 2.1 h
- Cmax [8, 13]: 219 ng/mL
- AUC(0-t) [8, 13]: 1730 ng·h/mL
- AUC [8, 13]: 1750 ng·h/mL
- half-life ([8]; telatinib in plasma, day 14 cycle 1, 150 mg BID oral, 25 mg mesylate tablet, n=6, geometric mean (%CV), read-out: t1/2 (converted)): 10.9 h
- Tmax ([8]; telatinib in plasma, day 14 cycle 1, 150 mg BID oral, 25 mg mesylate tablet, n=6, median (range), read-out: tmax): 3 h
- AUC(0-t) ([8]; telatinib in plasma, day 14 cycle 1, 300 mg BID oral, 25 mg mesylate tablet, n=6 (sample size reduced by 2), geometric mean (%CV)): 2860 ng·h/mL
- half-life ([8]; telatinib in plasma, day 14 cycle 1, 300 mg BID oral, 25 mg mesylate tablet, n=6 (sample size reduced by 2), geometric mean (%CV), read-out: t1/2 (converted)): 8 h
- Cmax [8, 14]: 389 ng/mL
- AUC [8, 14]: 1920 ng·h/mL
- Tmax ([8]; telatinib in plasma, day 14 cycle 1, 300 mg BID oral, 25 mg mesylate tablet, n=6, median (range), read-out: tmax): 1.5 h
- Cmax [8, 15]: 810 ng/mL
- AUC(0-t) [8, 15]: 5430 ng·h/mL
- AUC [8, 15]: 5430 ng·h/mL
- half-life ([8]; telatinib in plasma, day 14 cycle 1, 600 mg BID oral, 150 mg mesylate tablet, n=11, geometric mean (%CV), read-out: t1/2 (converted)): 8.7 h
- Tmax ([8]; telatinib in plasma, day 14 cycle 1, 600 mg BID oral, 150 mg mesylate tablet, n=11, median (range), read-out: tmax): 2.1 h
- half-life ([8]; telatinib in plasma, day 14 cycle 1, 900 mg BID oral, 150 mg mesylate tablet, n=12 (sample size reduced by 2), geometric mean (%CV), read-out: t1/2 (converted)): 5.6 h
- Cmax [8, 16]: 1280 ng/mL
- AUC(0-t) [8, 16]: 7300 ng·h/mL
- AUC [8, 16]: 7410 ng·h/mL
- Tmax ([8]; telatinib in plasma, day 14 cycle 1, 900 mg BID oral, 150 mg mesylate tablet, n=12, median (range), read-out: tmax): 2 h
- Cmax [8, 17]: 1140 ng/mL
- AUC(0-t) [8, 17]: 7260 ng·h/mL
- AUC [8, 17]: 7100 ng·h/mL
- half-life ([8]; telatinib in plasma, day 14 cycle 1, 1200 mg BID oral, 150 mg mesylate tablet, n=6, geometric mean (%CV), read-out: t1/2 (converted)): 5.6 h
- Tmax ([8]; telatinib in plasma, day 14 cycle 1, 1200 mg BID oral, 150 mg mesylate tablet, n=6, median (range), read-out: tmax): 2.5 h
- Cmax [8, 18]: 964 ng/mL
- AUC(0-t) [8, 18]: 6290 ng·h/mL
- AUC [8, 18]: 6170 ng·h/mL
- half-life ([8]; telatinib in plasma, day 14 cycle 1, 1500 mg BID oral, 150 mg mesylate tablet, n=12, geometric mean (%CV), read-out: t1/2 (converted)): 6.6 h
- Tmax ([8]; telatinib in plasma, day 14 cycle 1, 1500 mg BID oral, 150 mg mesylate tablet, n=12, median (range), read-out: tmax): 2.5 h
- median tmax ([8]; telatinib, oral, 75 mg BID to 1500 mg BID dose range): ≤ 3 h
